Assay results as given in the NIST ThermoML archive (doi:10.1016/j.jct.2017.07.008).
Where “and” joins values, the source holds several entries; their conditions need not be identical. Equal values may be shown once. Numbers after ± are expanded uncertainties.

Details: for surface tension liquid-gas: Drop volume; for viscosity / speed of sound / mass density: Liquid; for viscosity: Capillary tube (Ostwald / Ubbelohde) method; for speed of sound: Frequency=3 MHz, Single path-length method; for mass density: Vibrating tube method

## O=Cc1cccs1 [2-thiophenealdehyde]
283.15 K
  surface tension liquid-gas: 47.82 ± 0.34 mN/m
283.15 K, 100 kPa
  viscosity: 2.796 ± 0.033 mPa·s
  speed of sound: 1512.8 ± 0.95 m/s
  mass density: 1232.44 ± 0.58 kg/m3 and 1232.47 ± 0.58 kg/m3
283.15 K, 2000 kPa
  mass density: 1233.56 ± 0.58 kg/m3
283.15 K, 5000 kPa
  mass density: 1235.26 ± 0.6 kg/m3
283.15 K, 7000 kPa
  mass density: 1236.39 ± 0.61 kg/m3
283.15 K, 10000 kPa
  mass density: 1238.06 ± 0.62 kg/m3
283.15 K, 15000 kPa
  mass density: 1240.76 ± 0.65 kg/m3
283.15 K, 20000 kPa
  mass density: 1243.38 ± 0.68 kg/m3
283.15 K, 25000 kPa
  mass density: 1245.94 ± 0.72 kg/m3
283.15 K, 30000 kPa
  mass density: 1248.47 ± 0.75 kg/m3
283.15 K, 35000 kPa
  mass density: 1250.93 ± 0.79 kg/m3
283.15 K, 40000 kPa
  mass density: 1253.33 ± 0.83 kg/m3
283.15 K, 45000 kPa
  mass density: 1255.69 ± 0.87 kg/m3
283.15 K, 50000 kPa
  mass density: 1258.02 ± 0.91 kg/m3
283.15 K, 55000 kPa
  mass density: 1260.26 ± 0.95 kg/m3
283.15 K, 60000 kPa
  mass density: 1262.44 ± 1 kg/m3
283.15 K, 65000 kPa
  mass density: 1264.58 ± 1 kg/m3
285.65 K
  surface tension liquid-gas: 47.52 ± 0.33 mN/m
285.65 K, 100 kPa
  viscosity: 2.661 ± 0.032 mPa·s
  speed of sound: 1504.3 ± 0.95 m/s
  mass density: 1229.92 ± 0.58 kg/m3
288.15 K
  surface tension liquid-gas: 47.22 ± 0.33 mN/m
288.15 K, 100 kPa
  viscosity: 2.513 ± 0.03 mPa·s
  speed of sound: 1495.9 ± 0.95 m/s
  mass density: 1227.39 ± 0.57 kg/m3
288.15 K, 2000 kPa
  mass density: 1228.51 ± 0.58 kg/m3
288.15 K, 5000 kPa
  mass density: 1230.24 ± 0.6 kg/m3
288.15 K, 7000 kPa
  mass density: 1231.38 ± 0.61 kg/m3
288.15 K, 10000 kPa
  mass density: 1233.07 ± 0.62 kg/m3
288.15 K, 15000 kPa
  mass density: 1235.82 ± 0.65 kg/m3
288.15 K, 20000 kPa
  mass density: 1238.51 ± 0.68 kg/m3
288.15 K, 25000 kPa
  mass density: 1241.13 ± 0.71 kg/m3
288.15 K, 30000 kPa
  mass density: 1243.69 ± 0.74 kg/m3
288.15 K, 35000 kPa
  mass density: 1246.2 ± 0.78 kg/m3
288.15 K, 40000 kPa
  mass density: 1248.64 ± 0.82 kg/m3
288.15 K, 45000 kPa
  mass density: 1251.04 ± 0.86 kg/m3
288.15 K, 50000 kPa
  mass density: 1253.38 ± 0.9 kg/m3
288.15 K, 55000 kPa
  mass density: 1255.68 ± 0.94 kg/m3
288.15 K, 60000 kPa
  mass density: 1257.93 ± 0.99 kg/m3
288.15 K, 65000 kPa
  mass density: 1260.14 ± 1 kg/m3
290.65 K
  surface tension liquid-gas: 46.92 ± 0.33 mN/m
290.65 K, 100 kPa
  viscosity: 2.386 ± 0.029 mPa·s
  speed of sound: 1487.4 ± 0.95 m/s
  mass density: 1224.88 ± 0.57 kg/m3
293.15 K
  surface tension liquid-gas: 46.6 ± 0.33 mN/m
293.15 K, 100 kPa
  viscosity: 2.267 ± 0.027 mPa·s
  speed of sound: 1479.1 ± 0.95 m/s
  mass density: 1222.35 ± 0.57 kg/m3 and 1222.36 ± 0.57 kg/m3
293.15 K, 2000 kPa
  mass density: 1223.5 ± 0.58 kg/m3
293.15 K, 5000 kPa
  mass density: 1225.27 ± 0.59 kg/m3
293.15 K, 7000 kPa
  mass density: 1226.44 ± 0.6 kg/m3
293.15 K, 10000 kPa
  mass density: 1228.16 ± 0.62 kg/m3
293.15 K, 15000 kPa
  mass density: 1230.98 ± 0.64 kg/m3
293.15 K, 20000 kPa
  mass density: 1233.73 ± 0.67 kg/m3
293.15 K, 25000 kPa
  mass density: 1236.41 ± 0.7 kg/m3
293.15 K, 30000 kPa
  mass density: 1239.02 ± 0.74 kg/m3
293.15 K, 35000 kPa
  mass density: 1241.57 ± 0.77 kg/m3
293.15 K, 40000 kPa
  mass density: 1244.07 ± 0.81 kg/m3
293.15 K, 45000 kPa
  mass density: 1246.51 ± 0.85 kg/m3
293.15 K, 50000 kPa
  mass density: 1248.9 ± 0.89 kg/m3
293.15 K, 55000 kPa
  mass density: 1251.24 ± 0.93 kg/m3
293.15 K, 60000 kPa
  mass density: 1253.53 ± 0.97 kg/m3
293.15 K, 65000 kPa
  mass density: 1255.77 ± 1 kg/m3
295.65 K
  surface tension liquid-gas: 46.27 ± 0.33 mN/m
295.65 K, 100 kPa
  viscosity: 2.162 ± 0.026 mPa·s
  speed of sound: 1470.8 ± 0.95 m/s
  mass density: 1219.84 ± 0.57 kg/m3
298.15 K
  surface tension liquid-gas: 45.99 ± 0.33 mN/m
298.15 K, 100 kPa
  viscosity: 2.053 ± 0.025 mPa·s
  speed of sound: 1462.4 ± 0.95 m/s
  mass density: 1217.32 ± 0.57 kg/m3
298.15 K, 2000 kPa
  mass density: 1218.49 ± 0.58 kg/m3
298.15 K, 5000 kPa
  mass density: 1220.31 ± 0.59 kg/m3
298.15 K, 7000 kPa
  mass density: 1221.5 ± 0.6 kg/m3
298.15 K, 10000 kPa
  mass density: 1223.27 ± 0.62 kg/m3
298.15 K, 15000 kPa
  mass density: 1226.15 ± 0.64 kg/m3
298.15 K, 20000 kPa
  mass density: 1228.95 ± 0.67 kg/m3
298.15 K, 25000 kPa
  mass density: 1231.69 ± 0.7 kg/m3
298.15 K, 30000 kPa
  mass density: 1234.36 ± 0.73 kg/m3
298.15 K, 35000 kPa
  mass density: 1236.96 ± 0.77 kg/m3
298.15 K, 40000 kPa
  mass density: 1239.51 ± 0.8 kg/m3
298.15 K, 45000 kPa
  mass density: 1242 ± 0.84 kg/m3
298.15 K, 50000 kPa
  mass density: 1244.43 ± 0.88 kg/m3
298.15 K, 55000 kPa
  mass density: 1246.81 ± 0.92 kg/m3
298.15 K, 60000 kPa
  mass density: 1249.14 ± 0.96 kg/m3
298.15 K, 65000 kPa
  mass density: 1251.43 ± 1 kg/m3
300.65 K
  surface tension liquid-gas: 45.68 ± 0.33 mN/m
300.65 K, 100 kPa
  viscosity: 1.96 ± 0.024 mPa·s
  speed of sound: 1454 ± 0.95 m/s
  mass density: 1214.8 ± 0.57 kg/m3
303.15 K
  surface tension liquid-gas: 45.4 ± 0.33 mN/m
303.15 K, 100 kPa
  viscosity: 1.875 ± 0.023 mPa·s
  speed of sound: 1445.7 ± 0.95 m/s
  mass density: 1212.28 ± 0.57 kg/m3 and 1212.29 ± 0.57 kg/m3
303.15 K, 2000 kPa
  mass density: 1213.48 ± 0.58 kg/m3
303.15 K, 5000 kPa
  mass density: 1215.34 ± 0.59 kg/m3
303.15 K, 7000 kPa
  mass density: 1216.56 ± 0.6 kg/m3
303.15 K, 10000 kPa
  mass density: 1218.37 ± 0.61 kg/m3
303.15 K, 15000 kPa
  mass density: 1221.32 ± 0.64 kg/m3
303.15 K, 20000 kPa
  mass density: 1224.19 ± 0.67 kg/m3
303.15 K, 25000 kPa
  mass density: 1226.98 ± 0.69 kg/m3
303.15 K, 30000 kPa
  mass density: 1229.71 ± 0.73 kg/m3
303.15 K, 35000 kPa
  mass density: 1232.36 ± 0.76 kg/m3
303.15 K, 40000 kPa
  mass density: 1234.96 ± 0.8 kg/m3
303.15 K, 45000 kPa
  mass density: 1237.49 ± 0.83 kg/m3
303.15 K, 50000 kPa
  mass density: 1239.97 ± 0.87 kg/m3
303.15 K, 55000 kPa
  mass density: 1242.4 ± 0.91 kg/m3
303.15 K, 60000 kPa
  mass density: 1244.77 ± 0.95 kg/m3
303.15 K, 65000 kPa
  mass density: 1247.09 ± 1 kg/m3
305.65 K
  surface tension liquid-gas: 45.08 ± 0.33 mN/m
305.65 K, 100 kPa
  viscosity: 1.797 ± 0.022 mPa·s
  speed of sound: 1437.3 ± 0.95 m/s
  mass density: 1209.76 ± 0.57 kg/m3
308.15 K
  surface tension liquid-gas: 44.75 ± 0.32 mN/m
308.15 K, 100 kPa
  viscosity: 1.728 ± 0.021 mPa·s
  speed of sound: 1429 ± 0.95 m/s
  mass density: 1207.25 ± 0.57 kg/m3
308.15 K, 2000 kPa
  mass density: 1208.47 ± 0.58 kg/m3
308.15 K, 5000 kPa
  mass density: 1210.38 ± 0.59 kg/m3
308.15 K, 7000 kPa
  mass density: 1211.63 ± 0.6 kg/m3
308.15 K, 10000 kPa
  mass density: 1213.48 ± 0.61 kg/m3
308.15 K, 15000 kPa
  mass density: 1216.49 ± 0.63 kg/m3
308.15 K, 20000 kPa
  mass density: 1219.43 ± 0.66 kg/m3
308.15 K, 25000 kPa
  mass density: 1222.28 ± 0.69 kg/m3
308.15 K, 30000 kPa
  mass density: 1225.06 ± 0.72 kg/m3
308.15 K, 35000 kPa
  mass density: 1227.77 ± 0.75 kg/m3
308.15 K, 40000 kPa
  mass density: 1230.42 ± 0.79 kg/m3
308.15 K, 45000 kPa
  mass density: 1233 ± 0.83 kg/m3
308.15 K, 50000 kPa
  mass density: 1235.53 ± 0.86 kg/m3
308.15 K, 55000 kPa
  mass density: 1238 ± 0.9 kg/m3
308.15 K, 60000 kPa
  mass density: 1240.41 ± 0.94 kg/m3
308.15 K, 65000 kPa
  mass density: 1242.78 ± 0.99 kg/m3
310.65 K
  surface tension liquid-gas: 44.48 ± 0.32 mN/m
310.65 K, 100 kPa
  viscosity: 1.654 ± 0.02 mPa·s
  speed of sound: 1420.7 ± 0.95 m/s
  mass density: 1204.73 ± 0.57 kg/m3
313.15 K
  surface tension liquid-gas: 44.17 ± 0.32 mN/m
313.15 K, 100 kPa
  viscosity: 1.59 ± 0.019 mPa·s
  speed of sound: 1412.4 ± 0.95 m/s
  mass density: 1202.21 ± 0.57 kg/m3
313.15 K, 2000 kPa
  mass density: 1203.46 ± 0.57 kg/m3
313.15 K, 5000 kPa
  mass density: 1205.41 ± 0.59 kg/m3
313.15 K, 7000 kPa
  mass density: 1206.7 ± 0.59 kg/m3
313.15 K, 10000 kPa
  mass density: 1208.59 ± 0.61 kg/m3
313.15 K, 15000 kPa
  mass density: 1211.67 ± 0.63 kg/m3
313.15 K, 20000 kPa
  mass density: 1214.67 ± 0.66 kg/m3
313.15 K, 25000 kPa
  mass density: 1217.59 ± 0.69 kg/m3
313.15 K, 30000 kPa
  mass density: 1220.43 ± 0.72 kg/m3
313.15 K, 35000 kPa
  mass density: 1223.19 ± 0.75 kg/m3
313.15 K, 40000 kPa
  mass density: 1225.89 ± 0.78 kg/m3
313.15 K, 45000 kPa
  mass density: 1228.52 ± 0.82 kg/m3
313.15 K, 50000 kPa
  mass density: 1231.1 ± 0.85 kg/m3
313.15 K, 55000 kPa
  mass density: 1233.61 ± 0.89 kg/m3
313.15 K, 60000 kPa
  mass density: 1236.07 ± 0.93 kg/m3
